Measured values reported in patent US10517867B2, “Posaconazole derivative, pharmaceutical composition and use thereof” (priority 2016, dated 2019).

Legend:
[1] = In vitro metabolic stability in human plasma; format: in vitro ADME; conditions: human, plasma, 37° C., 10 μM compound, read-out: Human plasma T1/2
Method: (§1) This example detects the metabolic stability of the compounds of the present disclosure in human (rat) plasma and intestinal S9 in vitro. In a human (rat) plasma reaction system, 990 μl of human (rat) plasma was taken and incubated at 37° C. for 5 minutes, and 10 μl of the compound mother liquor was used to initiate the reaction. In the human (rat) intestinal S9 stability experiment, in the order shown in Table 2 below, the samples were added and incubated in a 37° C. water bath to initiate the reaction, each sample performed in triplicates. Respectively, at 1 minute, 2 minutes, 5 minutes, 15 minutes, 30 minutes after the reaction began, 100 μL of each was taken and added to a centrifuge tube containing 400 μL of 0° C. precooled internal standard working solution. The reaction was terminated, vortexed and mixed for 1 minute, centrifuged at 10000×g for 10 minutes in a 4° C. precooled high-speed centrifuge, and the supernatant was detected with HPLC. The test results were used to calculate metabolic half-life using WinNonlin (version 6.2 Pharsight, Mountain View, Calif.) with a non-compartmental model.
(§2) Compound stock solution concentration: 1 mM
(§3) Reaction matrix: human (rat) plasma, intestinal S9 purchased from Research Institute for Liver Diseases (Shanghai) Co., Ltd.

[2] = In vitro metabolic stability in human intestine S9; format: in vitro ADME; conditions: human; 37° C., 10 μM compound, 1 mg/mL S9, NADPH regeneration system; read-out: Human intestine S9 T1/2
Method: as §1, §2, §3

[3] = In vitro metabolic stability in rat plasma; format: in vitro ADME; conditions: rat, plasma, 37° C., 10 μM compound, read-out: Rat plasma T1/2
Method: as §1, §2, §3

[4] = In vitro metabolic stability in rat intestine S9; format: in vitro ADME; conditions: rat, pH 7.4; 37° C., 10 μM compound, 1 mg/mL S9, NADPH regeneration system; read-out: Rat intestine S9 T1/2
Method: as §1, §2, §3

[5] = test system: Candida albicans ATCC10231; assay: Systemic fungal infection in mice, intravenous administration; format: in vivo, ICR mice
Method: (§4) ICR mice, weighing 18-22 g, male, provided by Hubei Experimental Animal Center.
(§5) Prior to the experiment, a small amount of Candida albicans was picked from an SDA (sacharomyces agar, the same below) medium kept at 4° C. with an inoculation loop and inoculated into 1 ml YPD (Yeast Extract Peptone Dextrose Medium) culture medium, cultured at 30° C. with 200 rpm shaking and activated for 16 hours, so that the fungus was in the late stage of exponential growth. Counted with a hemocytometer and the fungal solution concentration was adjusted to 1×10^3-5×10^3 CFU/ml with RPMI1640 medium (Roswell Park Memorial Institute 1640, the same below). Monoclonal Candida albicans on SDA plate was picked up, inoculated into 1 ml YPD (Yeast Extract Peptone Dextrose Medium, the same below) culture medium, cultured at 35° C., 200 rpm for 16 hours until late exponential growth phase. Candida albicans was inoculated into fresh medium for culturing for 6 hours at 1%, centrifuged at 1000×g for 5 minutes, washed with physiological saline three times until the supernatant was colorless, counted with a hemocytometer, and the cell concentration was adjusted to 5×10^6 cells/ml. A tail vein injection of 0.1 ml/10 g caused a systemic fungal infection in mice. […] A total of 7 days of observations were performed. All dead mice were burned with ethanol.

[6] = test system: Candida albicans ATCC10231; assay: Systemic fungal infection in mice, intragastric administration; format: in vivo, ICR mice; conditions: Candida albicans, ATCC10231, po
Method: as §4
as §5, with “SDA” for “SDA (sacharomyces agar, the same below)”, “YPD” for “YPD (Yeast Extract Peptone Dextrose Medium)”, “1×10^3 to 5×10^3” for “1×10^3-5×10^3”, “medium.” for “medium (Roswell Park Memorial Institute 1640, the same below).”

[7] = Determination of solubility in deionized water (HPLC, external standard); conditions: 25 °C, water, thermodynamic from solid
[8] = 24 h, read-out: survival rate of mice, day 1
[9] = 48 h, read-out: survival rate of mice, day 2
[10] = 72 h, read-out: survival rate of mice, day 3
[11] = 96 h, read-out: survival rate of mice, day 4
[12] = 120 h, read-out: survival rate of mice, day 5
[13] = 144 h, read-out: survival rate of mice, day 6
[14] = 168 h, read-out: survival rate of mice, day 7
[15] = 24 h, read-out: survival rate of mice, day 1, 20 mg/kg intragastric once daily for 5 days, day 1
[16] = 48 h, read-out: survival rate of mice, day 2, 20 mg/kg intragastric once daily for 5 days, day 2
[17] = 72 h, read-out: survival rate of mice, day 3, 20 mg/kg intragastric once daily for 5 days, day 3
[18] = 96 h, read-out: survival rate of mice, day 4, 20 mg/kg intragastric once daily for 5 days, day 4
[19] = 120 h, read-out: survival rate of mice, day 5, 20 mg/kg intragastric once daily for 5 days, day 5
[20] = 144 h, read-out: survival rate of mice, day 6, 20 mg/kg intragastric once daily for 5 days, day 6
[21] = 168 h, read-out: survival rate of mice, day 7, 20 mg/kg intragastric once daily for 5 days, day 7
[22] = 24 h, 20 mg/kg intragastric once daily for 5 days, day 1, read-out: survival rate of mice, day 1
[23] = 48 h, 20 mg/kg intragastric once daily for 5 days, day 2, read-out: survival rate of mice, day 2
[24] = 72 h, 20 mg/kg intragastric once daily for 5 days, day 3, read-out: survival rate of mice, day 3
[25] = 96 h, 20 mg/kg intragastric once daily for 5 days, day 4, read-out: survival rate of mice, day 4
[26] = 120 h, 20 mg/kg intragastric once daily for 5 days, day 5, read-out: survival rate of mice, day 5
[27] = 144 h, 20 mg/kg intragastric once daily for 5 days, day 6, read-out: survival rate of mice, day 6
[28] = 168 h, 20 mg/kg intragastric once daily for 5 days, day 7, read-out: survival rate of mice, day 7

SMILES | half-life at 10 µM [1] [min] | half-life at 10 µM [2] [min] | half-life at 10 µM [3] [min] | half-life at 10 µM [4] [min] | responders at 20 mg/kg [5, 8] [%] | responders at 20 mg/kg [5, 9] [%] | responders at 20 mg/kg [5, 10] [%] | responders at 20 mg/kg [5, 11] [%] | responders at 20 mg/kg [5, 12] [%] | responders at 20 mg/kg [5, 13] [%] | responders at 20 mg/kg [5, 14] [%] | responders at 20 mg/kg [6, 15] [%] | responders at 20 mg/kg [6, 16] [%] | responders at 20 mg/kg [6, 17] [%] | responders at 20 mg/kg [6, 18] [%] | responders at 20 mg/kg [6, 19] [%] | responders at 20 mg/kg [6, 20] [%] | responders at 20 mg/kg [6, 21] [%] | solubility at 30 min [7] [mg/mL] | responders at 20 mg/kg [6, 22] [%] | further results
CC[C@@H]([C@H](C)OC(=O)OC(C)OC(=O)CCCCCOP(=O)([O-])[O-])n1ncn(-c2ccc(N3CCN(c4ccc(OC[C@@H]5CO[C@@](Cn6cncn6)(c6ccc(F)cc6F)C5)cc4)CC3)cc2)c1=O.[Na+].[Na+] (stereo partly shown) [ST0063] | 0.85 ± 0.45 | 16.3 ± 2.12 | 1.21 ± 0.75 | 19.4 ± 5.69 | 100 | 100 | 90 | 90 | 90 | 90 | 90 | 90 | 90 | 80 | 80 | 80 | 80 | 80 | > 50 | – | –
CC[C@@H](C(C)OC(=O)OC(C)OC(=O)CCCCCCOP(=O)([O-])[O-])n1ncn(-c2ccc(N3CCN(c4ccc(OC[C@@H]5CO[C@@](Cn6cncn6)(c6ccc(F)cc6F)C5)cc4)CC3)cc2)c1=O.[Na+].[Na+] (stereo partly shown) [ST0070] | 0.95 ± 0.31 | 20.2 ± 8.02 | 1.12 ± 0.56 | 17.6 ± 5.85 | 100 | 90 | 90 | 90 | 90 | 90 | 90 | 100 | 90 | 90 | 90 | 80 | 70 | 70 | > 50 | – | –
CC[C@@H]([C@H](C)OC(=O)OCOC(=O)CCCCCOP(=O)([O-])[O-])n1ncn(-c2ccc(N3CCN(c4ccc(OC[C@@H]5CO[C@@](Cn6cncn6)(c6ccc(F)cc6F)C5)cc4)CC3)cc2)c1=O.[Na+].[Na+] [ST0073] | 0.92 ± 0.11 | 16.2 ± 6.08 | 0.75 ± 0.23 | 16 ± 8.96 | 100 | 100 | 100 | 100 | 90 | 90 | 90 | 100 | 90 | 80 | 80 | 80 | 70 | 70 | > 50 | – | –
CC[C@@H](C(C)OC(=O)OCOC(=O)CCCCCCOP(=O)([O-])[O-])n1ncn(-c2ccc(N3CCN(c4ccc(OC[C@@H]5CO[C@@](Cn6cncn6)(c6ccc(F)cc6F)C5)cc4)CC3)cc2)c1=O.[Na+].[Na+] (stereo partly shown) [ST0074] | 0.86 ± 0.07 | 20 ± 4.66 | 1.26 ± 0.54 | 18.2 ± 5.66 | 100 | 100 | 90 | 90 | 90 | 90 | 90 | 100 | 100 | 90 | 80 | 80 | 80 | 70 | > 50 | – | –
CC[C@@H](C(C)OC(=O)OC(C)OC(=O)CCCCOS(=O)(=O)[O-])n1ncn(-c2ccc(N3CCN(c4ccc(OC[C@@H]5CO[C@@](Cn6cncn6)(c6ccc(F)cc6F)C5)cc4)CC3)cc2)c1=O.[Na+] (stereo partly shown) [ST0078] | 2.22 ± 0.58 | 24.2 ± 8.75 | 2.57 ± 0.74 | 28.2 ± 5.65 | – | – | – | – | – | – | – | – | – | – | – | – | – | – | > 50 | 90 | responders at 20 mg/kg [6, 23]: 90%; responders at 20 mg/kg [6, 24]: 80%; responders at 20 mg/kg [6, 25]: 70%; responders at 20 mg/kg [6, 26]: 70%; responders at 20 mg/kg [6, 27]: 70%; responders at 20 mg/kg [6, 28]: 70%
CC[C@@H](C(C)OC(=O)OC(C)OC(=O)CCCCCOS(=O)(=O)[O-])n1ncn(-c2ccc(N3CCN(c4ccc(OC[C@@H]5CO[C@@](Cn6cncn6)(c6ccc(F)cc6F)C5)cc4)CC3)cc2)c1=O.[Na+] (stereo partly shown) [ST0079] | 2.56 ± 0.42 | 28.7 ± 8.9 | 2.06 ± 0.77 | 27.9 ± 11.2 | – | – | – | – | – | – | – | – | – | – | – | – | – | – | > 50 | 90 | responders at 20 mg/kg [6, 23]: 90%; responders at 20 mg/kg [6, 24]: 90%; responders at 20 mg/kg [6, 25]: 80%; responders at 20 mg/kg [6, 26]: 80%; responders at 20 mg/kg [6, 27]: 70%; responders at 20 mg/kg [6, 28]: 70%
CC[C@@H]([C@H](C)OC(=O)OC(C)OC(=O)CCCCCCCOS(=O)(=O)[O-])n1ncn(-c2ccc(N3CCN(c4ccc(OC[C@@H]5CO[C@@](Cn6cncn6)(c6ccc(F)cc6F)C5)cc4)CC3)cc2)c1=O.[Na+] (stereo partly shown) [ST0082] | 8.99 ± 2.52 | 42.1 ± 13.7 | 9.36 ± 1.56 | 52.6 ± 8.69 | – | – | – | – | – | – | – | – | – | – | – | – | – | – | > 50 | 90 | responders at 20 mg/kg [6, 23]: 70%; responders at 20 mg/kg [6, 24]: 70%; responders at 20 mg/kg [6, 25]: 70%; responders at 20 mg/kg [6, 26]: 70%; responders at 20 mg/kg [6, 27]: 70%; responders at 20 mg/kg [6, 28]: 60%
